The test system of assay [1] is PGE2-induced hyperalgesia. The experiment in a line: PGE2-induced mechanical hyperalgesia, paw-withdrawal threshold. Format: in vivo, rat. The settings on record: same dose as for epinephrine: BIM 1 µg, WIPTIDE 100 ng. The method, then: The roles of PKC, protein kinase A ("PKA") and the µ-opioid receptor in mediating epinephrine-induced hyperalgesia were assessed by measuring the effects of: Rp-adenosine 3', 5'-cyclic monophosphate ("Rp-cAMPs") and WIPTIDE, both inhibitors of PKA; SQ22536, an inhibitor of adenylyl cyclase, an enzyme activated by PKA; bisindolymaleimide ("BIM"), a nonselective inhibitor of PKC isozymes; and [D-Ala^2,N-Me-Phe^4,Gly^5-ol]-enkephalin ("DAMGO"), p-opioid receptor agonist. The dose for each inhibitor was 1µg, except for WIPTIDE, which was administered in a 100ng dose. DAMGO was co-injected with epinephrine whereas the other inhibitors were applied 15 minutes prior to epinephrine injection. […] TABLE 1: Percentage decrease in nociceptive threshold in response to epinephrine, PGE2 or isoproterenol (each 100 ng) and effects of DAMGO, SQ22536, BIM, Rp-cAMPs (all 1 µg) or WIPTIDE (0.1 µg). A large numeric value means more hyperalgesia.
For mechanical nociceptive testing, the nociceptive flexion reflex was quantified using an Ugo Basile analgesymeter that applies a constantly increasing force measured in grams (Stoelting, Chicago, IL; K. O. Aley, J. D. Levine, J. Neurosci. 17, 8018-23 (1997)). The mean basal mechanical threshold for rats used in these experiments was 105.3+/-2.8 grams. The effects of hyperalgesia-inducing agents epinephrine (100ng) and PGE2 (100ng) on mechanical nociceptive thresholds were determined by measuring paw withdrawal frequencies at 15, 20, and 25 minutes after administration of the hyperalgesic agent and then calculating the mean of these three readings.

Assay [2] concerns prolonged PGE2-induced hyperalgesia. In words: Chronic inflammatory pain model: prolonged hyperalgesia in carrageenan-sensitized rats (Randall-Selitto paw-withdrawal test). Format: in vivo. An excerpt:
In order to investigate the role, if any, of PKCε in chronic inflammatory pain, the following model system for chronic inflammatory pain was developed. Rats received intradermal hind paw injections of carrageenan, an inflammatory agent. […] This was considered an acute response to the carrageenan-induced inflammation. Although administration of Prostaglandin E2 ("PGE2"), 5-hydroxytryptamine ("5-HT," serotonin) or CGS-21680 (an adenosine A2-selective receptor agonist) normally causes untreated rats (that is, rats that have not received carrageenan injections) to experience hyperalgesia lasting up to 6 hours, the hyperalgesia experienced by carrageenan-sensitized rats following administration of any one of these substances lasted up to 24 hours.
The prolonged PGE2-induced hyperalgesia normally seen in carrageenan-sensitized rats was inhibited by administration of BIM or εV1-2.
To examine whether protein kinase C modulates the processes by which a brief inflammatory event causes prolonged hyperalgesia many days later, rats received carrageenan and 1µg BIM injections at the same time. Hyperalgesia was measured 72 hours later, when the rats were treated PGE2. […] Therefore, administration of an inhibitor of PKC either at approximately the same time as the inflammatory agent giving rise to chronic, prolonged hyperalgesia or at about the same time as the hyperalgesia-inducing stimulus can lessen such chronic hyperalgesia.

For another assay, the system named is TTX-RINa. Type of assay: cell-based, rat.
The subject of assay [3] is isoproterenol-induced hyperalgesia. In words: Isoproterenol-induced mechanical hyperalgesia, paw-withdrawal threshold. Type of assay: in vivo, rat. The settings on record: intradermal; BIM 1 µg, WIPTIDE 100 ng; propranolol dose not given. The method, then:
To examine the role of β-AR in epinephrine-induced hyperalgesia, propranolol, a β-AR antagonist, and isoproterenol, a selective β-AR agonist, were administered by intradermal injection.
The roles of PKC, protein kinase A ("PKA") and the µ-opioid receptor in mediating epinephrine-induced hyperalgesia were assessed by measuring the effects of: Rp-adenosine 3', 5'-cyclic monophosphate ("Rp-cAMPs") and WIPTIDE, both inhibitors of PKA; SQ22536, an inhibitor of adenylyl cyclase, an enzyme activated by PKA; bisindolymaleimide ("BIM"), a nonselective inhibitor of PKC isozymes; and [D-Ala^2,N-Me-Phe^4,Gly^5-ol]-enkephalin ("DAMGO"), p-opioid receptor agonist. The dose for each inhibitor was 1µg, except for WIPTIDE, which was administered in a 100ng dose. […] A large numeric value means more hyperalgesia.

Assay [4] concerns diabetes-induced hyperalgesia. The experiment in a line: Streptozotocin diabetes model, diabetes-induced hyperalgesia to mechanical stimuli. Type of assay: in vivo, Sprague-Dawley rats. To be noted: four weeks after streptozotocin 70 mg/kg; intradermal sterile water then 1 µg. How it is done:
Persons with uncontrolled or poorly controlled diabetes frequently experience hyperalgesia. The role of PKCε in diabetic neuropathy was examined in a model of diabetes in which male Sprague-Dawley rats receive subcutaneous injection of streptozotocin (70 mg/kg), a pancreatic β-cell toxin. These rats display hyperglycemia and glucosuria within 24 hours after the injection and show decreased nociceptive thresholds in response to mechanical stimuli administered by Ugo Basile analgesymeter in the hind paw after one week (Ahlgren, S.C. et al, J. Neurophysiology, 68, 2077-2085 (1992); Ahlgren, S.C. and Levine, J.D., Neuroscience 52, 1049-1055 (1993)). Four weeks after the streptozotocin injection, each rat received no treatment (n=8) or an intradermal injection of sterile water followed by a intradermal injections of (1) 1 µg bisindolymaleimide, a protein kinase C inhibitor (n=4; labeled "BIM" on Figure 12B), (2) 1 µg εV1-2, a PKCε inhibitory peptide (n=8; labeled "PKCεI" on Figure 12B), or (3) 1 µg S-VεV1-2, a scrambled version of the εV1-2 peptide (n=4; labeled "PCKε1 SCR" on Figure 12B) and were subsequently exposed to mechanical stimuli.

Where [5] appears, read: 1µg at the same time as carrageenan.
The mark [6] stands for this setting: 1µM epinephrine with 100µM BIM v. epinephrine alone.

For the molecule `CN(C)CCCn1cc(C2=C(c3c[nH]c4ccccc34)C(=O)NC2=O)c2ccccc21` [BIM, bisindolymaleimide I], the “effect on PGE2-induced hyperalgesia” value in assay [1] is reported as “had no effect”. In assay [2] (setting [5]), the “effect on acute hyperalgesia normally induced by carrageenan exposure” value was “attenuated” and the “effect on prolonged hyperalgesia on PGE2 72 or more hours after carrageenan exposure” value is “attenuated”. In addition, in assay [2] (1µg several days after the carrageenan injection, then PGE2), the “effect on prolonged PGE2-induced hyperalgesia in carrageenan-sensitized rats” value is “inhibited”. In the assay with TTX-RINa (setting [6]), the “mean peak current increase” value is 32% and the “number of neurons responsive to epinephrine” value was 5 out of 11. Moreover, the “effect on epinephrine-induced potentiation of TTX-RINa” value with TTX-RINa (1µM epinephrine, 2µM propranolol, 5µM phentolamine, 100µM Rp-cAMPs, 100µM BIM) is given as “significantly decreased”. For the same molecule, the “effect on isoproterenol-induced hyperalgesia” value in assay [3] is “significantly attenuated”. Also, the “effect on diabetes-induced decrease in nociceptive threshold” value in assay [4] was “markedly reduced”.
